The METLIN SMRT retention time set (Domingo-Almenara et al. 2019)

Assay: gradient 5% acetonitrile 3 min, to 50% in 2 min, to 85% in 15 min, held 3 min, 100 µL/min
Details: column: Zorbax Extend-C18 2.1 x 50 mm; eluents: water / acetonitrile, 0.1% formic acid
Procedure, shortened: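 A Zorbax Extend-C18 column (2.1 × 50 mm, 1.8 μm) run at 100 μL/min with water and acetonitrile, both containing 0.1% formic acid, separated mixtures of ~100 pure standards. The HPLC was coupled to a quadrupole time-of-flight mass spectrometer operated in positive and negative ionization mode, with dead and dwell volumes of 40 μL and 900 μL. Each retention time was taken from a computationally picked adduct peak that was then manually inspected.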

SMILES	RP-LC retention time [s]
CCc1ccccc1NC(=O)CN1C(=O)NC2(CCC(C)CC2)C1=O (stereo not given)	698
Cc1cc(C(F)F)n2nc(C(=O)Nc3ccc(F)cc3C)nc2n1	811
O=C(NC1CCc2nnc(C3CC3)n2CC1)c1cc(C2CC2)[nH]n1 (stereo not given)	581
O=C(NC1CC1)c1c2c(nc3ccccc13)CCC2	566
C=CCOC(=O)/C=C\C(=O)NC(N)=O	659
O=C(Cc1c(F)cccc1Cl)Nc1nnc(C2CC(=O)N(c3ccccc3)C2)o1 (stereo not given)	691
COc1ccccc1-c1csc(NC(=O)c2sc(COc3cccc(C)c3)nc2C)n1	1250
CCOc1ccccc1NS(=O)(=O)c1cc(-c2cc(C(F)(F)F)on2)sc1C	1120
CCn1ncn2cc(S(=O)(=O)Nc3ccc(Cl)cc3)cc2c1=O	792
OC(c1ccncc1)c1cccc(Cl)c1F (stereo not given)	586
CCOc1ccccc1NC(=O)C1CCCN(c2nc3c(s2)c(C)nn3-c2ccc(C)cc2)C1 (stereo not given)	1360
CCn1cc(-c2nc(CC(=O)Nc3ccc(F)c(F)c3)cs2)c2cccnc21	961
CCNC(=O)c1ccc2c(c1)CCN2C(C)=O	609
COc1ccc(CNC(=O)C2CCCN(c3nc4ccccc4n(Cc4ccccc4)c3=O)C2)cc1 (stereo not given)	1090
O=C(O)c1cn(-c2cccc(F)c2)nn1	652
CSc1nnc(-c2nn(C)c3c2CN(C(=O)c2ccccc2F)CC3)n1C	697
COC(=O)N[C@@H](C)CNc1nccc(-c2cn(C(C)C)nc2-c2cc(Cl)cc(NS(C)(=O)=O)c2F)n1	792
O=C(NCC(c1ccsc1)N1CCCC1)Nc1ccc(Cl)cc1 (stereo not given)	578
CCn1cc(C)c(C(=O)O)c1CC(=O)Nc1cccc(C)n1	678
COCCn1c(CC2CCN(C(=O)Nc3cccc(Cl)c3C)C2)nc2cccnc21 (stereo not given)	631
Cc1cc(-c2nnc(-c3ccccc3)o2)c(C)n1CC(=O)Nc1cccc(Cl)c1	1030
CS(=O)(=O)N1CCCc2cc(C(=O)NCCC3=CCCCC3)ccc21	935
CCN1CCCC1CNC(=O)c1ccc2nc(Cc3ccccc3)oc2c1 (stereo not given)	650
CCCC(=O)c1cn(CC(=O)NCc2ccc3c(c2)OCCCO3)c2ccccc12	876
CCCN1C(=O)C2CCC(=O)N2c2ccc(C(=O)Nc3cccc(SC)c3)cc21 (stereo not given)	879
CC(C)NC(=O)c1cc2cc(Br)ccc2[nH]1	879
CC(C)c1ccc(S(=O)(=O)N2CCC(C)(C(=O)NCc3ccc(F)cc3)CC2)cc1	1050

SMILES	RP-LC retention time [s]
O=C(c1ccccc1C(F)(F)F)N1CCc2nc(-c3ccc(F)cc3)ncc2C1	1020
Cc1cccc(OCCCn2c(CO)nc3ccccc32)c1	678
CCOc1ccc(CNC(=O)C2CCCN(c3ccc(=O)n(-c4ccc(C)c(Cl)c4)n3)C2)cc1 (stereo not given)	830
CC1CN([C@H]2C[C@@H](N=[N+]=[N-])[C@@H](CO)O2)C(=O)NC1=O (stereo not given in full)	644
Cc1ccc(-c2nc3ccc(Cl)cn3c2Nc2ccc3c(c2)OCO3)cc1	708
CCCn1cc(-c2ccncc2)cc1C(=O)NC1CCCCC1	685
COc1ccc(S(=O)(=O)N2CCc3c(c(-c4nnc(-c5ccccc5F)o4)nn3C)C2)cc1	882
Cc1ccn2cc(-c3ccc(NC(=O)c4ccc([N+](=O)[O-])cc4Cl)cc3)nc2n1	660
CCN(Cc1ccccc1)C(=O)CS(=O)Cc1cnn(-c2ccccc2)c1-n1cccc1 (stereo not given)	825
Cc1cc(C)c(C(=O)N2CCCC(C(=O)NCc3ccccc3Cl)C2)[nH]1 (stereo not given)	834
CCCNC(=O)c1sc(-n2nc(C)c(Cl)c2C)nc1C	1130
Cc1ccc(NC(=O)Nc2cccn3nc(C)nc23)cc1	803
O=C(CN1C[C@H]2C[C@H](C1)[C@H]1CCCC(=O)N1C2)NCC1CC1	563
CCN(CC)CCCC(C)Nc1ccnc(/C=C/c2ccc(Cl)cc2)c1 (stereo not given)	602
O=C(N1CCCC(c2nnnn2-c2ccccc2)C1)C1(c2ccccc2)CC1 (stereo not given)	839
CCN(CC)C(=O)c1ccc2c(c1)N(C(=O)NC)CC2	648
Cc1ccc(NC(=O)c2cn(C)nc2S(=O)(=O)N2CCSCC2)cc1Cl	1080
COc1ccc(OC)c(S(=O)(=O)N2CCc3c(c(-c4nnc(-c5ccccc5)o4)nn3C)C2)c1	912
CC(CCc1ccccc1)NC(=O)Cn1nc2n(c1=O)CCCC2 (stereo not given)	716
O=c1n(Cc2cccc(C(F)(F)F)c2)nc2ccc(-c3ccccc3)nn12	887
COc1ccc(CNC(=O)c2[nH]c3cc(C)sc3c2CN(C)C)cc1OC	641
O=C(O)C1CN(C(=O)COc2ccccc2F)C1	604
CCC(Oc1ccc(=O)n(-c2ccc(F)cc2)n1)C(=O)NCCCOC (stereo not given)	677
CCOc1ccc(CNC(=O)C2CCCN(c3nnc(C)c4c(C)n(-c5ccc(C)cc5)nc34)C2)cc1 (stereo not given)	785
COc1ccccc1-c1nc(-c2cn(Cc3ccc(F)cc3)nn2)no1	927
Cc1ccc(CNC(=O)Cc2csc3nc(-c4cccc(Br)c4)cn23)cc1	963

Second part, the compound after the results:

RP-LC retention time [s]	SMILES
741	CCOC(=O)c1noc2nc(C)nc(NCC3CCN(CCc4ccc(F)cc4)CC3)c12
773	Cc1ccc2c(c1)C(C)(C)C(=O)N2CC(=O)N1CCN(c2ncccn2)CC1
818	CCc1nc(-c2csc(S(=O)(=O)N3CCC(C(=O)NCc4ccccc4C)CC3)c2)no1
710	Cc1ccc(CNC(=O)Cn2cnc3nc(N4CCCC(C(=O)NC(C)C)C4)sc3c2=O)cc1 (stereo not given)
600	CN1CCN(CCNC(=O)CSCc2nc3cccnc3n2C2CCCCC2)CC1
688	CCN(CC)CCNC(=O)C1CCCN(c2ncc(-c3cccc(F)c3)cn2)C1 (stereo not given)
771	CC1=C(c2ccc(C)c(C)c2)S(=O)(=O)N=C1N1CCCN(C(=O)c2ccccn2)CC1
729	COc1ccccc1OCc1nc(-c2ccc3ncn(C(C)C)c3c2)no1
695	CCc1cc2c3c([nH]c2cc1S(=O)(=O)N1CCN(c2ccccn2)CC1)CC(C)(C)CC3=O
564	CCCN1CCN(CCCNC(=O)CSc2nc3ccccc3n(C)c2=O)CC1
983	O=C(Cn1nc(C(=O)N2CCCC2)c2ccccc21)N1CCN(c2cccc(C(F)(F)F)c2)CC1
572	Cc1cc(F)ccc1S(=O)(=O)NCC(c1ccsc1)N1CCOCC1 (stereo not given)
771	Cn1c(=O)c(N2CCC(NC(=O)NCc3ccc(F)cc3)CC2)nc2cccnc21
550	Cc1nnc2n1CCC(NC(=O)Cc1cccs1)CC2 (stereo not given)
832	O=C(c1ccccn1)N1CCCC1c1nc(-c2ccc(F)cc2F)no1 (stereo not given)
627	COc1cc2c(Nc3ccc(NC(=O)c4ccccc4)cc3)ncnc2cc1OCCCN1CCOCC1
660	COc1ccc(N2CCN(Cc3nc4nc(C)cc(N5CCCCC5)n4n3)CC2)cc1
833	O=[N+]([O-])c1ccc(-c2nc(N3CCOCC3)c3ccccc3n2)cc1
746	CCNc1cc(C)nc(N2CCN(C(=O)c3ccc(-c4ccccc4)cc3)CC2)n1

RP-LC retention time [s]	SMILES
734	CC1CCCN(Cc2nc(-c3ccc(N(C)Cc4ccccc4)nc3)no2)C1 (stereo not given)
820	Cc1cccc(CN2CCCn3nc(C(=O)NCCc4cccs4)cc3C2=O)c1
824	Cc1ccc(NC(=O)C2CCCN(c3ncnc4c3nc3n4CCCCC3)C2)c(C)c1 (stereo not given)
1220	COC(=O)c1sccc1NC(=O)N1CCCC1c1nc(-c2cccc(Cl)c2)no1 (stereo not given)
718	Cc1ccc(NC(=O)CN2CCC(c3nc(-c4cccs4)no3)CC2)c(C)c1
922	Cc1cccc(OCC(=O)c2ccc3c(c2)N(C(C)C(=O)N2CCCC2)C(=O)CO3)c1C (stereo not given)
720	COCc1noc(C2CCCCN2CC(=O)Nc2nccs2)n1 (stereo not given)
594	O=C(c1cc(-c2cccnc2)n[nH]1)N1CCN(C(=O)C2CCCC2)CC1
848	COC(=O)c1cc(S(=O)(=O)N2CCCC2C(=O)N2CCc3ccccc32)cn1C (stereo not given)
882	Cc1nc(N2CCOCC2)c2c(C(=O)Nc3ccc(C)c(C)c3)c(C)oc2n1
632	CC1CC(=O)c2cnc(N3CCN(Cc4ccc5c(c4)OCO5)CC3)nc2C1 (stereo not given)
769	Cc1ccc(Nc2c(-c3ccc(N4CCOCC4)cc3)nc3cc(C)ccn23)cc1
600	CC(C)CN1CCn2cc(C(=O)NC3CCCCC3)nc2C1
872	CCN1CCn2cc(S(=O)(=O)N3CCN(c4cccc(Cl)c4)CC3)cc2C1=O
1090	CCSc1nnc(-c2nn(C)c3c2CN(S(=O)(=O)c2ccc(C(C)C)cc2)CC3)n1CC
897	Cc1nnc(-c2ccc(Cl)cc2)nc1N1CCC(C)CC1
683	O=C1NCCOCCN(C(=O)COc2ccccc2)[C@H]2CCC[C@@H]12
574	CC(C)N1CCN(Cc2nc(-c3ccc(N4CCOCC4)nc3)no2)CC1
